{
  "source": "patent US8623904B2",
  "about": "“Use of tetramic acid derivatives for controlling pests by watering or droplet application” (Bayer CropScience AG, priority 2007, dated 2014)",
  "key": {"Oidium Iycopersicum": {"tested_on": "Oidium Iycopersicum", "experiment": "Drench application to tomato plants on rock wool, infection with powdery mildew Oidium Iycopersicum, efficacy by Abbott formula", "type": "in vivo", "conditions": "40 mg of active compound/plant, 240 SC, watered 100 ml; for Efficacy (% Abbott) against Oidium Iycopersicum 14 d: 14 d after infection; for Efficacy (% Abbott) against Oidium Iycopersicum 23 d: 23 d after infection; for Efficacy (% Abbott) against Oidium Iycopersicum 28 d new growth / Efficacy (% Abbott) against Oidium Iycopersicum 28 d old leaves: 28 d after infection", "method": "In each case three tomato plants of the cultivar “Hoffmanns Rendita” on rock wool are, in two replications, watered one week after transplantation with in each case 100 ml of active compound solution comprising the active compound (II) (formulation: 240 SC) at the stated application rate. The greenhouse temperature is 20° C. during the day and 17° C. at night. Infection with the powdery mildew Oidium Iycopersicum is in each case carried out two and seven days after the active compound application. Evaluation is in each case carried out 14, 23, 28, 35 days after the respective infection by determining the efficacy on the old leaves and the new growth using the Abbott formula*.\n(§1) Calculation of the efficacy according to Abbott:\n(§2) [formula] where X=value for the control and Y=value for the compound tested"}, "Leveillula taurica": {"tested_on": "Leveillula taurica", "experiment": "Drench application to bell pepper plants, natural infection with Leveillula taurica, efficacy by Abbott formula", "type": "in vivo", "conditions": "240 SC, watered 50 ml, bell pepper \"Shishitou aoi\", 21 days after treatment", "method": "8 plots each 2.25 m^2 in size with bell pepper plants of the cultivar “Shishitou aoi” are, in two replications, watered with 50 ml of an active compound solution comprising the active compound (II) (formulation: 240 SC) at the stated application rate. Following a severe natural infection with Leveillula taurica, evaluation is carried out 21 days after the treatment by determining the efficacy using the Abbott formula*.\nas §1, §2"}},
  "data": [
    {"smiles": "CCOC(=O)OC1=C(c2cc(C)ccc2C)C(=O)N[C@]12CC[C@@H](OC)CC2", "note": "[Active compound (II)]", "values": [
      {"measurement": "Efficacy (% Abbott) against Oidium Iycopersicum 14 d", "setting": "Oidium Iycopersicum; 2 d prior to infection", "result": 33, "unit": "% Abbott"},
      {"measurement": "Efficacy (% Abbott) against Oidium Iycopersicum 23 d", "setting": "Oidium Iycopersicum; 2 d prior to infection", "result": 40, "unit": "% Abbott"},
      {"measurement": "Efficacy (% Abbott) against Oidium Iycopersicum 28 d new growth", "setting": "Oidium Iycopersicum; 2 d prior to infection", "result": 65, "unit": "% Abbott"},
      {"measurement": "Efficacy (% Abbott) against Oidium Iycopersicum 28 d old leaves", "setting": "Oidium Iycopersicum; 2 d prior to infection", "result": 41, "unit": "% Abbott"},
      {"measurement": "Efficacy (% Abbott) against Oidium Iycopersicum 14 d", "setting": "Oidium Iycopersicum; 7 d prior to infection", "result": 45, "unit": "% Abbott"},
      {"measurement": "Efficacy (% Abbott) against Oidium Iycopersicum 23 d", "setting": "Oidium Iycopersicum; 7 d prior to infection", "result": 45, "unit": "% Abbott"},
      {"measurement": "Efficacy (% Abbott) against Oidium Iycopersicum 28 d new growth", "setting": "Oidium Iycopersicum; 7 d prior to infection", "result": 77, "unit": "% Abbott"},
      {"measurement": "Efficacy (% Abbott) against Oidium Iycopersicum 28 d old leaves", "setting": "Oidium Iycopersicum; 7 d prior to infection", "result": 45, "unit": "% Abbott"},
      {"measurement": "Efficacy (% Abbott) against Leveillula taurica 21 d", "setting": "Leveillula taurica; 40 mg of active compound/plant", "result": 87.4, "unit": "% Abbott"},
      {"measurement": "Efficacy (% Abbott) against Leveillula taurica 21 d", "setting": "Leveillula taurica; 60 mg of active compound/plant", "result": 100, "unit": "% Abbott"},
      {"measurement": "Efficacy (% Abbott) against Leveillula taurica 21 d", "setting": "Leveillula taurica; 80 mg of active compound/plant", "result": 100, "unit": "% Abbott"}
    ]}
  ]
}
